Measurements taken from US20100260785A1, “SARP-1 Fusion Proteins and Uses Thereof” (priority 2007, published 2010).
Entries after “also recorded” stand apart in the source; their conditions may differ.

Columns and labels:
[1] = test system: murine Wnt1 and human Wnt2; assay: Wnt antagonistic activity, LEF-luciferase reporter assay with mixed Inducer and Reporter 293T cells; type: cell-based
Method: 293T cells expressing murine Wnt1 and human Wnt2 (Inducer Cells) and 293T cells expressing Luciferase under the control of LEF-site-linked promoter (Reporter Cells) were mixed at an equal ratio and seeded in 100 μl medium per well in a 96-well microtiter plate. The Inducer Cells by overexpressing Wnt1 and Wnt2 at its surface were able to induce an activation of the Wnt signaling pathway triggered by the interaction of the Wnt proteins with its receptor at the cell membrane of the Reporter Cells. The Reporter Cells in response to Wnt pathway activation expressed luciferase by the activation of Wnt responsive genes such as LEF.
The mixture was composed of about 10,000 Inducer Cells and 10,000 Reporter Cells per well. SARP-1(Fz)delta7-Fc was added to the culture medium at different concentrations (from 300 to 5 μg/ml). After 48 hours of incubation, the medium was discarded, and 40 μl lysis buffer were added to the cells. After 15 minutes of lysis on an orbital shaker at 4° C., the samples were submitted to two cycles of freezing and thawing followed by rigid shaking using a vortex (for 2 minutes) and sedimentation by centrifugation at 2000 rpm in V-shape microtiter plates.
Luciferase activities were normalized by total protein content in the lysate. Protein quantification was performed on 5 μl cell lysate using the BCA kit (Pierce) as known in the art. To measure the luciferase activity, 10 μl of cell lysate each was transferred into a 96-well microtiter plate. 15 μl of luciferin reagent was added to the sample and the quantification of the luminescence was counted during 10 seconds.
The results were expressed in percentage of Wnt activation. Thus, the maximal luciferase activity obtained with the mixture of Inducer and Reporter Cells corresponded to 100%.

[2] = test system: unilateral ureter ligation-induced renal fibrosis; assay: Unilateral ureter obstruction (UUO) murine model of renal fibrosis; type: in vivo, C57BL/6 mice; settings: subcutaneous, 1.5 mg/ml, once a day, 21 days of treatment; p<0.05
Method: The in vivo activity of SARP-1(Fz)[…]-Fc was tested in an experimental model of obstructive nephropathy, which is unilateral ureter ligation-induced renal fibrosis (Vielhauer et al., 2001). Female inbred C57BL/6 mice weighing 20 to 26 g were kept in macrolone type III cages under a 12 h light/dark cycle. Water and standard chow were available ad libitum. Under general ether anesthesia, a low midline abdominal incision was performed and the ligation of the left distal ureter was made with a 2/0 Mersilene suture, resulting in a unilateral ureter obstruction (UUO). Unobstructed contralateral kidneys served as controls. […] The first dose was administered immediately after UUO once a day for 21 days Mice were killed at 7 and 21 days after UUO by cervical dislocation under general anesthesia with inhaled ether. From each mouse cranial kidney halves were used for histological assessment. Ligated and contralateral kidney tissue was fixed for 24 hours at room temperature in 4% neutral buffered formalin and then embedded in paraffin. For quantitative analysis, 4 μm horizontal sections were cut. Every fifth of fifteen subsequent sections, chosen by systematic uniformly random sampling, was used for analysis. […]

[3] = test system: B16F1 (mouse melanoma) cell line; assay: MTT cell proliferation assay, B16F1; type: cell-based
Method: (§1) The cell line B16F1 (mouse melanoma) were cultivated in DMEM+10% serum and seeded at 5000 cells/well in a total volume of 50 μl. The SW480 and SW620 (human colon carcinoma) cell lines were cultivated in L15 medium+10% fetal bovine serum and seeded at 20,000 cells per well in a total volume of 50 μl. SARP-1(Fz)delta7-Fc was added immediately at a concentration of 1, 3 or 6 μM.
(§2) Cell proliferation assay was evaluated by reduction of 3-(4,5-dimethylthiazol-2-yl)-2,5-diphenyltetrazolium bromide (MTT) after 24, 48, 72 and 96 hours of culture. For the test of cell proliferation, 5 μl and 10 μl of MTT solution were added to the cultures of B16F1, SW480 and SW620 cells, respectively. After the incubation period, cells were lysed in 200 μl DMSO, and optic density was determined at 570 and 630 nm. The positive control for inhibition of cell proliferation was DKK1-Fc used at a concentration of 1 μM during the experiment.

[4] = test system: SW480 (human colon carcinoma) cell line; assay: MTT cell proliferation assay, SW480; type: cell-based; settings: 1, 3 or 6 μM; MTT after 24, 48, 72 and 96 hours
Method: as §1, §2

[5] = test system: SW620 (human colon carcinoma) cell line; assay: MTT cell proliferation assay, SW620; type: cell-based; settings: 1, 3 or 6 μM; MTT after 24, 48, 72 and 96 hours
Method: as §1, §2

[6] = test system: human hepatic stellate cells; assay: Incorporation of 3H-thymidine into DNA of PDGF-BB-stimulated primary human hepatic stellate cells; type: cell-based; settings: PDGF-BB 10 ng/ml; 10, 1 and 0.1 μg/ml
Method: (§3) Human hepatic stellate cells (HSCs) were isolated from wedge sections of normal human liver unsuitable for transplantation. Liver tissue was digested with collagenase/pronase. HSC were separated from other liver nonparenchymal cells by ultracentrifugation over gradients of Stractan (Cellsep isotonic solution; Larex Inc., St. Paul, Minn.). HSC were cultured on plastic culture dishes in Iscove's modified Dulbecco's medium supplemented with 0.6 U/mL of insulin, 2.0 mmol/L of glutamine, 0.1 mmol/L of nonessential amino acids, 1.0 mmol/L of sodium pyruvate, antibiotic-antimycotic solution (all provided by Gibco Laboratories, Grand Island, N.Y.), and 20% fetal bovine serum (Imperial Laboratories, Andover, UK). All experiments were performed in triplicate and results are expressed as MEAN+SD. Statistical significance was evaluated by Student t test.
(§4) For this group of experiments the stimulus of choice was human recombinant PDGF-BB at the standard dose of 10 ng/ml. Canrenone (10 μM), whose inhibitory effect has been previously shown in the same cell preparations (Caligiuri et al., 2003), was used as a positive control of inhibition.
HSC were plated in 24 well plastic dishes and grown to confluence in complete cell culture medium containing 20% of fetal bovine serum (FBS). HSC were then deprived of serum for 48 hours and stimulated with PDGF-BB for additional 24 hours. […]

[7] = test system: human hepatic stellate cells; assay: Cell proliferation assay (cell number/well) of PDGF-BB-stimulated primary human hepatic stellate cells; type: cell-based
Method: as §3, §4
HSC were plated in 12 well dishes at 30% confluence in Iscove's modified Dulbecco's medium supplemented with 0.6 U/mL insulin, 2.0 mmol/L of glutamine, 0.1 mmol/L nonessential amino acids, 1.0 mmol/L of sodium pyruvate, antibiotic-antimycotic solution (all from Gibco Laboratories, Grand Island, N.Y.), and 20% fetal bovine serum (Imperial Laboratories, Andover, UK). After 24 hours the HSC were incubated with serum-free medium containing PDGF-BB to induce activation at a concentration of 10 ng/ml with or without SARP-1(Fz)delta7-Fc at a concentration of 10, 1 and 0.1 μg/ml. HSC were harvested and cell number/well were determined after 2, 4, and 6 days of culture. At each time point fresh medium and experimental conditions were added at the remaining wells.

[8] = test system: lung fibroblasts of patients with interstitial pulmonary fibrosis (IPF); assay: BrdU incorporation (cell proliferation ELISA) in primary lung fibroblasts from IPF patients; type: cell-based, human; settings: for PDGF-increased BrdU incorporation: PDGF 10 ng/ml
Method: To evaluate the effect of SARP-1(Fz)delta7-Fc, lung fibroblasts were obtained from lung explants of patients with interstitial pulmonary fibrosis (IPF) (N=3) and controls (N=3). Fibroblasts were cultured in 96 well cell culture plates in DMEM medium with high glucose (25 mM) and 10% Fetal Clone II (Hyclone) until they reached approximately 50% confluence. Fetal Clone II is an alternative to fetal bovine serum (FBS). Then the cells were cultured for 48 hours with Fetal Clone II at a concentration of 1%. […] Bromodeoxyuridine (5-bromo-2-deoxyuridine, BrdU) was added 24 hours later at a final concentration of 100 μM. After 24 hours of incubation, cells were fixed and lysed. Cell proliferation was evaluated with the cell proliferation ELISA BrdU colorimetric assay (Roche Diagnostics, Meylan, France) ELISA. The experiments were performed in the basal condition (without PDGF) and in the presence of PDGF (10 ng/ml), All experimental conditions were tested in triplicates and the mean value was calculated. For each experimental condition, the incorporation of BrdU was expressed as a percentage of the incorporation observed in the control condition in the same culture.

Q: How did the IC50 ([1]; 48 hours incubation, 300 to 5 μg/ml, read-out: IC50, reduction of luciferase activity) turn out when “SARP-1(Fz)delta7-Fc: Fusion of mature SARP-1 without Netrin domain, lacking first seven N-terminal amino acids, with human IgG1 Fc region” was run?
A: 750 nM

Q: What about the “Emax reached, inhibition of Wnt 1 and Wnt 2 activation” value ([1]; FIG. 3 legend) of the same substance?
A: 80%

Q: And the EC50 ([1]; FIG. 3 legend, read-out: EC50, inhibition of Wnt 1 and Wnt 2 activation in a reporter cellular assay)?
A: 750 nM

Q: And the “maximum inhibition of luciferase activity” value ([1]; at concentration from 150 to 300 μg/ml)?
A: 80%

Q: And the “alfa smooth muscle actin (α-SMA) accumulation, myofibroblast marker, histological analysis” value [2]?
A: reduction; also recorded: decreased

Q: What about the “renal fibrosis by morphometric analysis of the changes in the tubular interstitium” value [2] of the same substance?
A: reduction of renal fibrosis

Q: What about the “level of inhibition of B16F1 proliferation compared with positive control DKK1-Fc (1 μM)” value ([3]; 6 μM) of the same substance?
A: comparable to the one obtained by using the positive control

Q: And the “inhibition of proliferation of B16F1 melanoma cell line” value ([3]; 1 to 6 μM, MTT after 24, 48, 72 and 96 hours)?
A: significant inhibition; also recorded: inhibited cell proliferation

Q: What about the “inhibition of cell proliferation of SW480” value [4] of the same substance?
A: able to inhibit the cell proliferation; also recorded: inhibited cell proliferation

Q: What about the “inhibition of cell proliferation of SW620” value [5] of the same substance?
A: able to inhibit the cell proliferation; also recorded: inhibited cell proliferation

Q: And the “PDGF-induced DNA synthesis in primary human hepatic stellate cells cultures” value [6]?
A: reduced significantly

Q: What about the “inhibitory effect on PDGF-induced hepatic stellate cells” value ([7]; 10.0 μg/ml after 2, 4 and 6 days of culture) of the same substance?
A: more prominent

Q: And the “PDGF-induced cell growth of hepatic stellate cells” value ([7]; 10.0 μg/ml for 2, 4 or 6, PDGF-BB 10 ng/ml)?
A: significantly decreased

Q: What about the “inhibitory effect on PDGF-induced hepatic stellate cells” value ([7]; dose of 1 μg/ml after 2 days of culture) of the same substance?
A: statistically significant

Q: And the “PDGF-increased BrdU incorporation” value ([8]; 1 μg/ml)?
A: no effect

Q: And the “PDGF-increased BrdU incorporation” value ([8]; 10 μg/ml)?
A: no effect

Q: What about the “PDGF-increased BrdU incorporation” value ([8]; 100 μg/ml) of the same substance?
A: profoundly inhibited

Q: And the “PDGF-increased BrdU incorporation” value ([8]; concentration not given)?
A: reduced BrdU incorporation

Q: What about the “BrdU incorporation, basal condition” value ([8]; without PDGF, in b213 at the highest dose tested) of the same substance?
A: reduced BrdU incorporation
